In PubChem BioAssay AID330 (DTP/NCI, 2004):
Where “and” joins values, the source holds several entries; their conditions need not be identical. Equal entries are not always repeated. Inconclusive results and toxic doses are left out.

System: P388 leukemia ip, CD2F1 mice, survival T/C
Assay: NCI In Vivo Anticancer Drug Screen. Data for tumor model P388 Leukemia (intraperitoneal) in CD2F1 (CDF1) mice
Conditions: endpoint: median survival time, higher = longer survival
In short: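 Mice carrying the transplanted tumor received test compound or vehicle. Survival was recorded in each group, and the value is the treated-group measurement divided by that of the vehicle-treated control group.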

[1] = dose: 60.0 mg/kg/injection, schedule: Q01DX005 (ip), vehicle: saline
[2] = dose: 120.0 mg/kg/injection, schedule: Q01DX005 (ip), vehicle: saline
[3] = dose: 240.0 mg/kg/injection, schedule: Q01DX005 (ip), vehicle: saline
[4] = dose: 50.0 mg/kg/injection, schedule: Q01DX009 (ip), vehicle: saline with Tween-80
[5] = dose: 100.0 mg/kg/injection, schedule: Q01DX009 (ip), vehicle: saline with Tween-80
[6] = dose: 50.0 mg/kg/injection, schedule: Q01DX009 (ip), vehicle: Klucel (hydroxypropylcellulose) (HPC)
[7] = dose: 100.0 mg/kg/injection, schedule: Q01DX009 (ip), vehicle: Klucel (hydroxypropylcellulose) (HPC)
[8] = dose: 200.0 mg/kg/injection, schedule: Q01DX009 (ip), vehicle: Klucel (hydroxypropylcellulose) (HPC)
[9] = dose: 200.0 mg/kg/injection, schedule: Q01DX009 (ip), vehicle: saline with Tween-80
[10] = dose: 50.0 mg/kg/injection, schedule: Q01DX005 (ip), vehicle: saline with Tween-80
[11] = dose: 100.0 mg/kg/injection, schedule: Q01DX005 (ip), vehicle: saline with Tween-80
[12] = dose: 200.0 mg/kg/injection, schedule: Q01DX005 (ip), vehicle: saline with Tween-80
[13] = dose: 100.0 mg/kg/injection, schedule: Q01DX001 (ip), vehicle: saline with Tween-80
[14] = dose: 50.0 mg/kg/injection, schedule: Q01DX005 (ip), vehicle: saline
[15] = dose: 100.0 mg/kg/injection, schedule: Q01DX005 (ip), vehicle: saline

CC(=O)N1CCCN(C)/C1=N/[N+](=O)[O-]
T/C [1]: 103 % of control | T/C [2]: 100 % of control | T/C [3]: 108 % of control

C[Si](C)(C)O/C=C1\CCCCC1=O
T/C [4]: 121 % of control | T/C [5]: 106 % of control

COc1cc(O)c(C/C=C/c2ccccc2)cc1O
T/C (dose: 2.5 mg/kg/injection, schedule: Q01DX009 (ip), vehicle: saline with Tween-80): 102 % of control | T/C (dose: 5.0 mg/kg/injection, schedule: Q01DX009 (ip), vehicle: saline with Tween-80): 105 % of control | T/C (dose: 10.0 mg/kg/injection, schedule: Q01DX009 (ip), vehicle: saline with Tween-80): 103 % of control

O=C(NC1CCCCC1)O/N=C/c1ccccn1
T/C (dose: 50.0 mg/kg/injection, schedule: Q01DX001 (ip), vehicle: other): 95 % of control | T/C (dose: 100.0 mg/kg/injection, schedule: Q01DX001 (ip), vehicle: other): 95 % of control | T/C (dose: 200.0 mg/kg/injection, schedule: Q01DX001 (ip), vehicle: other): 100 % of control

CCCCCCC(=O)C(=O)c1ccc(O)c(C)c1O
T/C [6]: 89 % of control | T/C [7]: 93 % of control | T/C [8]: 93 % of control

CCC(C)CCC(=O)O (stereo not drawn)
T/C [4]: 98 % of control | T/C [5]: 97 % of control | T/C [9]: 99 % of control

N#CN=[N+]([O-])c1ccccc1
T/C (dose: 6.25 mg/kg/injection, schedule: Q04DX003 (ip), vehicle: Klucel (hydroxypropylcellulose) (HPC)): 100 % of control | T/C (dose: 12.5 mg/kg/injection, schedule: Q04DX003 (ip), vehicle: Klucel (hydroxypropylcellulose) (HPC)): 105 % of control | T/C (dose: 25.0 mg/kg/injection, schedule: Q04DX003 (ip), vehicle: Klucel (hydroxypropylcellulose) (HPC)): 106 % of control and 96 % of control

CC1COn2c1nc1ccccc1c2=O (stereo not drawn)
T/C [6]: 104 % of control | T/C [7]: 103 % of control | T/C [8]: 104 % of control

COc1cc(C2(c3ccc(O)c(OC)c3)CCCCC2)ccc1O
T/C [6]: 100 % of control | T/C [7]: 100 % of control | T/C [8]: 100 % of control

Clc1cccc2sc(Nc3c4ccccc4nc4ccccc34)nc12
T/C (dose: 12.5 mg/kg/injection, schedule: Q04DX002 (ip), vehicle: distilled water + Tween-80): 95 % of control | T/C (dose: 25.0 mg/kg/injection, schedule: Q04DX002 (ip), vehicle: distilled water + Tween-80): 89 % of control | T/C (dose: 50.0 mg/kg/injection, schedule: Q04DX002 (ip), vehicle: distilled water + Tween-80): 95 % of control | T/C (dose: 100.0 mg/kg/injection, schedule: Q04DX002 (ip), vehicle: distilled water + Tween-80): 97 % of control | T/C (dose: 200.0 mg/kg/injection, schedule: Q04DX002 (ip), vehicle: distilled water + Tween-80): 97 % of control | T/C (dose: 400.0 mg/kg/injection, schedule: Q04DX002 (ip), vehicle: distilled water + Tween-80): 97 % of control

Cc1ccc(Sc2ccc3ccccc3n2)cc1
T/C [10]: 90 % of control | T/C [11]: 101 % of control | T/C [12]: 104 % of control

COc1ccc2nc(-n3[nH]c(C)c(-c4cc(C)nn4-c4ccccc4)c3=O)cc(C)c2c1
T/C [13]: 98 % of control | T/C (dose: 200.0 mg/kg/injection, schedule: Q01DX001 (ip), vehicle: saline with Tween-80): 91 % of control

CNc1ccc2c(cc1=O)C(NC(C)=O)CCc1cc(OC)c(OC)c(OC)c1-2 (stereo not drawn)
T/C (dose: 0.08 mg/kg/injection, schedule: Q01DX009 (ip), vehicle: Klucel (hydroxypropylcellulose) (HPC)): 157 % of control | T/C (dose: 0.12 mg/kg/injection, schedule: Q01DX009 (ip), vehicle: Klucel (hydroxypropylcellulose) (HPC)): 157 % of control | T/C (dose: 0.16 mg/kg/injection, schedule: Q01DX009 (ip), vehicle: Klucel (hydroxypropylcellulose) (HPC)): 174 % of control | T/C (dose: 0.25 mg/kg/injection, schedule: Q01DX009 (ip), vehicle: Klucel (hydroxypropylcellulose) (HPC)): 150 % of control | T/C (dose: 0.32 mg/kg/injection, schedule: Q01DX009 (ip), vehicle: Klucel (hydroxypropylcellulose) (HPC)): 166 % of control

CC(C)C(=O)NCCCCCN1CCCCC1
T/C [14]: 106 % of control | T/C [15]: 99 % of control | T/C (dose: 200.0 mg/kg/injection, schedule: Q01DX005 (ip), vehicle: saline): 99 % of control

COC(=O)C1(C#N)CC1
T/C [1]: 113 % of control | T/C [2]: 96 % of control | T/C [3]: 103 % of control

C=C1C(=O)C2CCN1CC2
T/C [10]: 105 % of control and 110 % of control and 113 % of control | T/C [11]: 113 % of control and 116 % of control (2×) | T/C [12]: 111 % of control and 116 % of control

N#CC(O)COc1nsnc1N1CCOCC1 (stereo not drawn)
T/C (dose: 6.25 mg/kg/injection, schedule: Q01DX009 (ip), vehicle: Klucel (hydroxypropylcellulose) (HPC)): 108 % of control | T/C (dose: 12.5 mg/kg/injection, schedule: Q01DX009 (ip), vehicle: Klucel (hydroxypropylcellulose) (HPC)): 106 % of control | T/C (dose: 25.0 mg/kg/injection, schedule: Q01DX009 (ip), vehicle: Klucel (hydroxypropylcellulose) (HPC)): 105 % of control

COc1ccc(NNc2ccc(OC)cc2)cc1
T/C (dose: 50.0 mg/kg/injection, schedule: Q04DX003 (ip), vehicle: saline with Tween-80): 100 % of control | T/C (dose: 100.0 mg/kg/injection, schedule: Q04DX003 (ip), vehicle: saline with Tween-80): 92 % of control | T/C (dose: 200.0 mg/kg/injection, schedule: Q04DX003 (ip), vehicle: saline with Tween-80): 92 % of control

CC(=O)CSc1ccc(Cl)cc1
T/C [4]: 99 % of control | T/C [5]: 102 % of control | T/C [9]: 116 % of control

S=c1sc(-c2ccc(Cl)cc2)nn1CSc1nc2ccccc2o1
T/C (dose: 60.0 mg/kg/injection, schedule: Q01DX005 (ip), vehicle: saline with Tween-80): 97 % of control | T/C (dose: 120.0 mg/kg/injection, schedule: Q01DX005 (ip), vehicle: saline with Tween-80): 101 % of control | T/C (dose: 240.0 mg/kg/injection, schedule: Q01DX005 (ip), vehicle: saline with Tween-80): 95 % of control

CN(Cc1cccc2ccccc12)Cc1cccc2ccccc12
T/C [10]: 86 % of control | T/C [11]: 89 % of control

CC(Cl)CNCC(C)(C)C (stereo not drawn)
T/C [14]: 100 % of control | T/C [15]: 99 % of control

Cc1nc2sc3c(c2c2ncnn12)CCCC3
T/C [10]: 103 % of control | T/C [11]: 98 % of control | T/C [12]: 104 % of control

C=C(C)C1Oc2ccc(C(C)=O)cc2C1OC(=O)/C(C)=C\C (stereo not drawn)
T/C (dose: 22.5 mg/kg/injection, schedule: Q01DX009 (ip), vehicle: other): 107 % of control | T/C (dose: 45.0 mg/kg/injection, schedule: Q01DX009 (ip), vehicle: other): 111 % of control | T/C (dose: 90.0 mg/kg/injection, schedule: Q01DX009 (ip), vehicle: other): 107 % of control | T/C (dose: 180.0 mg/kg/injection, schedule: Q01DX009 (ip), vehicle: other): 107 % of control

CN=C(c1ccc(NC(=O)c2ccc(C(=O)Nc3ccc(C(=NC)N4CCCC4)cc3)cc2)cc1)N1CCCC1
T/C (dose: 0.39 mg/kg/injection, schedule: Q01DX005 (ip), vehicle: Klucel (hydroxypropylcellulose) (HPC)): 99 % of control | T/C (dose: 0.78 mg/kg/injection, schedule: Q01DX005 (ip), vehicle: Klucel (hydroxypropylcellulose) (HPC)): 93 % of control | T/C (dose: 1.56 mg/kg/injection, schedule: Q01DX005 (ip), vehicle: Klucel (hydroxypropylcellulose) (HPC)): 94 % of control | T/C (dose: 3.12 mg/kg/injection, schedule: Q01DX005 (ip), vehicle: Klucel (hydroxypropylcellulose) (HPC)): 97 % of control

C=C(Cl)CN(CC)CCO
T/C (dose: 25.0 mg/kg/injection, schedule: Q01DX009 (ip), vehicle: saline sonified): 100 % of control | T/C (dose: 50.0 mg/kg/injection, schedule: Q01DX009 (ip), vehicle: saline sonified): 100 % of control | T/C (dose: 100.0 mg/kg/injection, schedule: Q01DX009 (ip), vehicle: saline sonified): 100 % of control

Cn1c(O)c(N=NC(=S)NC(=O)C23CC4CC(CC(C4)C2)C3)c2ccccc21
T/C (dose: 1.56 mg/kg/injection, schedule: Q01DX005 (ip), vehicle: saline with Tween-80): 96 % of control | T/C (dose: 3.12 mg/kg/injection, schedule: Q01DX005 (ip), vehicle: saline with Tween-80): 97 % of control | T/C (dose: 6.25 mg/kg/injection, schedule: Q01DX005 (ip), vehicle: saline with Tween-80): 103 % of control | T/C [10]: 86 % of control | T/C [12]: 89 % of control

Nc1cnccc1Nc1ccncc1
T/C (dose: 50.0 mg/kg/injection, schedule: Q01DX001 (ip), vehicle: saline with Tween-80): 95 % of control | T/C [13]: 100 % of control
